Test results reported in patent publication US8617906B2, “Identification and screening of triptolide target molecules” (priority 2004, dated 2013).

What was measured:
[1] = system: Hypothetical Protein (GI 14758649), similar to heat shock protein (90 kDa) beta (PG787); test: Isolation of proteins binding 3H-triptolide in Jurkat cells; set-up: species or system human; conditions: 3H-labeled Jurkat cell extract
Procedure: (§1) Triptolide target molecules were isolated and identified by purification and identification of molecules that bind ^3H-triptolide. Jurkat cells from expanding cultures were labeled with ^3H-triptolide by cultivation at 37° C. with 5% CO2 for a period of time between a few hours and overnight (usually 6-7 hours) and harvested by centrifugation and washing in ice-cold phosphate buffered saline. The cells (usually 1-3×10^6/ml) were generally labeled with ^3H-triptolide to a final concentration of 35 nM (100 μCi/200 ml of medium). Collected cell pellets were pooled, and the cells were either extracted and subjected to separation and purification at that time, or were frozen and stored at −20° C. as pellets for extraction and investigation at a later time.
(§2) The cells were extracted with M-per buffer (Pierce) and homogenized in presence of a protease inhibitor cocktail, sometimes including other reagents such as deoxyribonuclease (DNase). […] When the extracts components were found not to be sufficiently purified, enriched or reduced in number, 2D gel electrophoresis was employed, followed by fluorography for ^3H-associated radioactivity detection, and MALDI/MS of the corresponding peptides (after proteolysis) and peptide fingerprinting. […]

[2] = biological target: T1, Human Serine/Threonine Protein Phosphatase 2A 130 KDa regulatory subunit, PP2A (PG789) (Homo sapiens, UniProt Q06190); test: as above; conditions: 3H-labeled Jurkat cell extract
T1 construct: endogenous in cells; host or cells: Jurkat
Procedure: as §1, §2

[3] = system: dopaminergic neurons; conditions: cited from earlier work
[4] = system: Phosphatidyl Inositol 3 Kinase—Class II (PG776); test: Isolation of proteins binding 3H-triptolide in Jurkat cells; set-up: species or system human; conditions: 3H-labeled Jurkat cell extract
Procedure: as §1, §2

[5] = system: NF-κB; conditions: cited from earlier work
[6] = biological target: T2, HSP 90β (PG771) (Homo sapiens, UniProt P08238); test: Isolation of proteins binding 3H-triptolide in Jurkat cells (FPLC, 2D gel, fluorography, MALDI-MS); conditions: 3H-labeled compound incubated with Jurkat cells
T2 construct: Jurkat cells from expanding cultures were labeled with; endogenous in cells; host or cells: Jurkat
Procedure: Triptolide target molecules were isolated and identified by purification and identification of molecules that bind ^3H-triptolide. Jurkat cells from expanding cultures were labeled with ^3H-triptolide by cultivation at 37° C. with 5% CO2 for a period of time between a few hours and overnight (usually 6-7 hours) and harvested by centrifugation and washing in ice-cold phosphate buffered saline. The cells (usually 1-3×10^6/ml) were generally labeled with ^3H-triptolide to a final concentration of 35 nM (100 μCi/200 ml of medium). […]
as §2
MALDI-MS peptide fingerprinting analysis identified HSP 90β (PG771) in fraction #4 and L-plastin (PG772) in fraction #9. […] A positive spot on the film (fluorographically positive, therefore positive for ^3H-associated radioactivity) was seen near the 29 kDa protein marker. […]

T1 sequence (Q06190 whole entry): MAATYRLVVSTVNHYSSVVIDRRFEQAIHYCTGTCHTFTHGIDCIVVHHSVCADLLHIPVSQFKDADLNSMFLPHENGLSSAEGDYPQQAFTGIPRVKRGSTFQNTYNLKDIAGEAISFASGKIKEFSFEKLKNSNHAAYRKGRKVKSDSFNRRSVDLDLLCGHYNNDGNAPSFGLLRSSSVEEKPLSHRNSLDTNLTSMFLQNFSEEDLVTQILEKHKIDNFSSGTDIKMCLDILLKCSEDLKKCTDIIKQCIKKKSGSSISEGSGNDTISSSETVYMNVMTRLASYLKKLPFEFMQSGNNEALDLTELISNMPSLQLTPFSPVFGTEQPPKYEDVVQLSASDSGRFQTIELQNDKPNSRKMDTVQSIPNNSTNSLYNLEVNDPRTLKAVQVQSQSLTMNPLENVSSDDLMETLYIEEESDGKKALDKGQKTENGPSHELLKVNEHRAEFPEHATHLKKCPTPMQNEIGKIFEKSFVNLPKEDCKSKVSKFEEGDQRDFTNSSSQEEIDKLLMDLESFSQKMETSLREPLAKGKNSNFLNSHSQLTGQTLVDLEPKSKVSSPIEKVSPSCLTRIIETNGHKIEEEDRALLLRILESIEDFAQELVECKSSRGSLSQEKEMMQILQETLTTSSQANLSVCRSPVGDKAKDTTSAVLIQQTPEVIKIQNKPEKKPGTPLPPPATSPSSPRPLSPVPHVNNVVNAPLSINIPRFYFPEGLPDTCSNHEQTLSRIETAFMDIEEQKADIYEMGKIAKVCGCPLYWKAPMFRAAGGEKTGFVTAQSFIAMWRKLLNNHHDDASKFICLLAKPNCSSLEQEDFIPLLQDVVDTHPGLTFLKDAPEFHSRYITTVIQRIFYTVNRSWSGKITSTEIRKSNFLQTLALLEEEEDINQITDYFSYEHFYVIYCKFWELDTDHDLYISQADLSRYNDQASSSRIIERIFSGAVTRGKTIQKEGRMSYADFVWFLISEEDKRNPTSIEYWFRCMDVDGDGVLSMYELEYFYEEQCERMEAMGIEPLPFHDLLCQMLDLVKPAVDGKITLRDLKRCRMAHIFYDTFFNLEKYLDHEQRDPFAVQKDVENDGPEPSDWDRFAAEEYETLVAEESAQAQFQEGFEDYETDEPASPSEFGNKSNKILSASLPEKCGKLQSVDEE
T2 sequence (P08238 whole entry): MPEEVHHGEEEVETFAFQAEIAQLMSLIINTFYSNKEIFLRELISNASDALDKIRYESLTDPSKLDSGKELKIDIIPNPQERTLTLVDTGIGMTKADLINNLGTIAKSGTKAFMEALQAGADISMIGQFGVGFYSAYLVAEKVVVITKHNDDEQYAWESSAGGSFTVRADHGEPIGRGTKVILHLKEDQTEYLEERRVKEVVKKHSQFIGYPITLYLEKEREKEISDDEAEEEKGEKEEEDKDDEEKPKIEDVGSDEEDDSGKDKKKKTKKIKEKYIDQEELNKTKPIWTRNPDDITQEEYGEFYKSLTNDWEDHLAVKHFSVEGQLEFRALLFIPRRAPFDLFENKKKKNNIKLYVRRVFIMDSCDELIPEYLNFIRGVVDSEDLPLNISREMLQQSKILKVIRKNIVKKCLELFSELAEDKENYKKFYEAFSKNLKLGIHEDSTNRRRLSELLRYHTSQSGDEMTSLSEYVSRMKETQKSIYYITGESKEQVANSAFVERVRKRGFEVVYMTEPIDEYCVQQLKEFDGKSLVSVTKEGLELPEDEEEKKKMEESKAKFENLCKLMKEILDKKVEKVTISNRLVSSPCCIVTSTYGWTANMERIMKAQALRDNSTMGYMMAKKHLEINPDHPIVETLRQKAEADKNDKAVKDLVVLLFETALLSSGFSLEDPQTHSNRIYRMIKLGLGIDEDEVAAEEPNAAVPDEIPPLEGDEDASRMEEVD

SMILES: CC(C)[C@]12O[C@H]1[C@@H]1O[C@]13[C@]1(O[C@H]1C[C@H]1C4=C(CC[C@@]13C)C(=O)OC4)[C@@H]2O [triptolide]
- 3H-associated protein identified as triptolide target: GI 14758649 [1]: identified
- 3H-associated protein identified as triptolide target: PP2A 130 KDa regulatory subunit [2]: identified
- LPS-induced decrease in 3H-dopamine uptake and loss of tyrosine hydroxylase-positive neurons [3]: attenuates
- 3H-associated protein identified as triptolide target: PI 3 Kinase Class II [4]: identification
- NF-κB activation [5]: inhibit NF-κB activation
- 3H-associated protein identified as triptolide target: HSP 90β [6]: identified
